The assay concerns the target T1, BB2r (gastrin-releasing peptide receptor) (Homo sapiens, UniProt P30550).
T1 construct: host or cells: PC-3 human prostate cancer cells (whole cells in suspension)
Description: In vitro competitive cell-binding, displacement of [125I-Tyr4]-Bombesin on PC-3 cells. The settings on record: PC-3 cells (~3×10^4), 4 °C, 40 min, RPMI 1640 pH 7.4, mean ± SEM (n = 6). The protocol: Data were presented as Mean ± SD/SEM as noted. […] In vitro stability studies of the radioconjugate in various buffers were analyzed by the two-tailed Student’s t-test. For comparison between the two models, analysis of the biodistribution studies, hypoxic burden and blood vessel density of tumor was carried out by a two-tailed Student’s t-test. Comparisons of the means of the BB2r-uptake, blood perfusion, hypoxic burden and blood vessel density of the tumors among the three tumor volume groups for each animal model were analyzed by one-way ANOVA. If the overall p-value was statistically significant, pairwise comparisons were adjusted using Tukey’s method. A p-value < 0.05 was considered statistically significant.
In Vitro Competitive Cell-Binding Studies […]
binding assays using PC-3 cells.
Establishment of Stably Transfected PC-3-Luc Cells
(firefly)-2A-GFP (Puro), AMSBIO) for transfection.
The medium was removed and replaced with 0.5 […]
and swirled to mix. […] Once the cells grew to confluence, they […]
1.5 mL of suspended cells in PBS at […]
to culture for in vitro and in vivo studies.
Cells were incubated at 37 °C
Development of PC-3 Xenograft SCID Mice
The tumor size was monitored during the growth by caliper measurement.
Development of PC-3 Orthotopic SCID mice […]
clips. […] The animals were monitored continuously for the following weeks. […]
(Displacement assays read how much labelled ligand stays bound in the presence of the test substance.)

Among the data in publication PMC6668441, “Comparative Study of Subcutaneous and Orthotopic Mouse Models of Prostate Cancer: Vascular Perfusion, Vasculature Density, Hypoxic Burden and BB2r-Targeting Efficacy” (Scientific Reports, 2019) are IC50 values, retold here.

T1 sequence (P30550 whole entry): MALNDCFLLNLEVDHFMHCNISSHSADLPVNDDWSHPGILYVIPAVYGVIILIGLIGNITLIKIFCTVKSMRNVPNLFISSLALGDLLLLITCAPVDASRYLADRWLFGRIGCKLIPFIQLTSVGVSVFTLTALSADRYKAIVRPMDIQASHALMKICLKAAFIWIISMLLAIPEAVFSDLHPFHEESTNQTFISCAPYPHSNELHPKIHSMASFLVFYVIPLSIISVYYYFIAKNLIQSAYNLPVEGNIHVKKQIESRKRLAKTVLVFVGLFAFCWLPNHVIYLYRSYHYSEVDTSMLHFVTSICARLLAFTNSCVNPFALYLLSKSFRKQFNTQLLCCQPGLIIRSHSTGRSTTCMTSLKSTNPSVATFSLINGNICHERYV

The term IC50 denotes the concentration at which inhibition is half-maximal. Read a low IC50 as greater potency. In turn, `CSCC[C@H](NC(=O)[C@H](CC(C)C)NC(=O)[C@H](Cc1c[nH]cn1)NC(=O)CNC(=O)[C@@H](NC(=O)[C@H](C)NC(=O)[C@H](Cc1c[nH]c2ccccc12)NC(=O)[C@H](CCC(N)=O)NC(=O)CCOCCOCCOCCOCCNC(=O)[C@@H](CO)NC(=O)[C@@H](CO)NC(=O)[C@@H](CO)NC(=O)[C@@H](CO)NC(=O)[C@@H](CO)NC(=O)CN1CCN(CC(=O)O)CCN(CC(=O)O)CCN(CC(=O)O)CC1)C(C)C)C(N)=O` [DOTA-SP714, DOTA-(D)S-(D)S-(D)S-(D)S-(D)S-PEG3–BBN(7–14)NH2] registered an IC50 of 9.8 ± 1.7 nM.
